Source: patent US12410171B2, “Tropomyosin receptor kinase (TRK) degradation compounds and methods of use” (Cullgen (Shanghai), Inc., priority 2020, dated 2025)

Target: T1, TPM3-TRKA fusion protein (Homo sapiens, UniProt P04629)
T1 construct: The resulted chimeric proteins always retain the kinase domain of TRK proteins; TPM3 (fusion partner, N-terminal part of tropomyosin alpha-3, P06753); endogenous in cells; host or cells: KM12 colon cancer cells; the other entry of the earlier key: TPM3 (P06753, Tropomyosin alpha-3 chain)
T1 sequence (P04629 with tags, fused parts or gaps): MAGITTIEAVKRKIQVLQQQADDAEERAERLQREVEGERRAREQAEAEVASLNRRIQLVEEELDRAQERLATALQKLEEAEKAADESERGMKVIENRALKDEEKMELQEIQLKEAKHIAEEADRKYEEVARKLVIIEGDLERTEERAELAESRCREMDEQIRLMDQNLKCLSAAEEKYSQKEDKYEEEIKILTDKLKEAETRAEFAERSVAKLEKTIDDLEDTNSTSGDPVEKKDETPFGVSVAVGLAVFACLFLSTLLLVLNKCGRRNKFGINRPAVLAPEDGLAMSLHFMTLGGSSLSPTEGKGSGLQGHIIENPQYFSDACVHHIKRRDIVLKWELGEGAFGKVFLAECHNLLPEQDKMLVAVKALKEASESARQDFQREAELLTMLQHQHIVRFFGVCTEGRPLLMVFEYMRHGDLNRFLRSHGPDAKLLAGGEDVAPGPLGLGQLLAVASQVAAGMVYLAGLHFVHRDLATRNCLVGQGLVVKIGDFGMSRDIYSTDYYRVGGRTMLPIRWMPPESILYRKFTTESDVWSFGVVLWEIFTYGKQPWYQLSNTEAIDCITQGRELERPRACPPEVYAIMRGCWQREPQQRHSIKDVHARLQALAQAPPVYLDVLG
Experiment: TPM3-TRKA fusion protein levels in KM12 cells (Western blot)
Format: cell-based
Conditions: 16 h; TPM3-TRKA degradation in KM12 cells at 10 nM compound, category of percentage degradation; read-out: Degradation (at 10 nM)
Experimental: KM12 cells were treated with DMSO or indicated compounds at 100 nM for 16 hours.
KM12 cells were treated with DMSO or indicated compounds at 0. 1 nM, 1 nM or 10 nM for 16 hours.
KM12 cells were treated with DMSO or indicated compounds at various concentrations for 16 hours.
KM12 cells were treated with DMSO or indicated compounds at various concentrations for 4 hours.
KM12 cells (a cancer model comprising a colon cancer cell line) were treated with DMSO or indicated compounds at various concentrations for 4 hours.
KM12 cells were treated with heterobifunctional compounds or their corresponding control compounds at 10 nM or 100 nM for 16 hours.
KM12 cells were treated with heterobifunctional compounds or their corresponding control compounds at 0.4-30 nM for 8-16 hours. […] Cells were authenticated using the short tandem repeat (STR) assays. […] Stable cell lines were established by lentivirus transduction, selected and maintained in medium containing 1 μg/mL puromycin (Beyotime Biotechnology).
Cultured cells were washed with cold PBS once and lysed in cold RIPA buffer supplemented with protease inhibitors and phosphatase inhibitors (Beyotime Biotechnology). The solutions were then incubated at 4° C. for 30 minutes with gentle agitation to fully lyse cells. For tumor tissues, tumors were cut into small pieces, milled with cold RIPA buffer using a mechanical homogenizer and lysed for 1 hour at 4° C. Cell lysates were centrifuged at 13,000 rpm for 10 minutes at 4° C. and pellets were discarded. Total protein concentrations in the lysates were determined by BCA assays (Beyotime Biotechnology). Cell lysates were mixed with Laemmli loading buffer to 1× and heated at 99° C. for 5 min. Proteins were resolved on SDS-PAGE and visualized by chemiluminescence. Images were taken by a ChemiDoc MP Imaging system (Bio-Rad). Protein bands were quantitated using the software provided by Bio-Rad.

Structure (SMILES) | percent degradation of TPM3-TRKA protein at 0.01 µM [%]
O=C1CCC(N2C(=O)c3ccc(NCCCC(=O)N4CCN(c5cccc(-c6cnc7ccc(N8CCC[C@@H]8c8cccc(F)c8)nn67)n5)CC4)cc3C2=O)C(=O)N1 (stereo partly drawn) [TR-168, 2-(2,6-Dioxopiperidin-3-yl)-5-((4-(4-(6-(6-((R)-2-(3-fluorophenyl)pyrrolidin-1-yl)imidazo[1,2-b]pyridazin-3-yl)pyridin-2-yl)piperazin-1-yl)-4-oxobutyl)amino) isoindoline-1,3-dione] | > 80
O=C1CCC(N2C[C@H](c3cccc(CN4CCN(c5cccc(-c6cnc7ccc(N8CCC[C@@H]8c8cccc(F)c8)nn67)n5)CC4)c3)OC2=O)C(=O)N1 (stereo partly drawn) [TR-235, 3—((S)-5-(3-((4-(6-(6-((R)-2-(3-Fluorophenyl)pyrrolidin-1-yl)imidazo[1,2-b]pyridazin-3-yl)pyridin-2-yl)piperazin-1-yl)methyl)phenyl)-2-oxooxazolidin-3-yl)piperidine-2,6-dione] | 50 to 80
Cn1c(=O)n(C2CCC(=O)NC2=O)c2cccc(NCCCN3CCN(c4cccc(-c5cnc6ccc(N7CCC[C@@H]7c7cccc(F)c7)nn56)n4)CC3)c21 (stereo partly drawn) [TR-217, 3-[4-[3-[4-[6-[6-[(2R)-2-(3-Fluorophenyl)pyrrolidin-1-yl]imidazo[1,2-b]pyridazin-3-yl]-2-pyridyl]piperazin-1-yl]propylamino]-3-methyl-2-oxo-benzimidazol-1-yl]piperidine-2,6-dione] | > 80
O=C(CN1CCN(c2cccc(-c3cnc4ccc(N5CCC[C@@H]5c5cccc(F)c5)nn34)n2)CC1)NCCOCCOCCOCCOCCOCCNc1cccc2c1C(=O)N(C1CCC(=O)NC1=O)C2=O (stereo partly drawn) [TR-104, N-(17-((2-(2,6-dioxopiperidin-3-yl)-1,3-dioxoisoindolin-4-yl)amino)-3,6,9,12,15-pentaoxaheptadecyl)-2-(4-(6-(6-((R)-2-(3-fluorophenyl)pyrrolidin-1-yl)imidazo[1,2-b]pyridazin-3-yl)pyridin-2-yl)piperazin-1-yl)acetamide] | > 80
O=C1CCC(N2C(=O)c3ccc(N4CCC(CN5CCN(c6cccc(-c7cnc8ccc(N9CCC[C@@H]9c9cccc(F)c9)nn78)n6)CC5)CC4)cc3C2=O)C(=O)N1 (stereo partly drawn) [TR-226, 2-(2,6-dioxopiperidin-3-yl)-5-(4-((4-(6-(6-((R)-2-(3-fluorophenyl)pyrrolidin-1-yl)imidazo[1,2-b]pyridazin-3-yl)pyridin-2-yl)piperazin-1-yl)methyl)piperidin-1-yl)isoindoline-1,3-dione] | > 80

Results, then the compound that gave them:

percent degradation of TPM3-TRKA protein at 0.01 µM [%] | Structure (SMILES)
50 to 80 | Cc1ncsc1-c1ccc(CNC(=O)[C@@H]2C[C@@H](O)CN2C(=O)[C@@H](NC(=O)CCC(=O)N2CCN(c3ccc(C(=O)Nc4n[nH]c5ccc(Cc6cc(F)cc(F)c6)cc45)c(NC4CCOCC4)c3)CC2)C(C)(C)C)cc1 [CPD-046, (25,4R)-1-((S)-2-(4-(4-(4-((S-(3,5-Difluorobenzyl)-1H-indazol-3-yl)carbamoyl)-3,3-((tetrahydro-2H-pyran-4-yl)amino)phenyl)piperazin-1-yl)-4-oxobutanamido)-3,3-dimethylbutanoyl)-4-hydroxy-N-(4-(4-methylthiazol-S-yl)benzyl)pyrrolidine-2-carboxamide]
> 80 | O=C1CCC(N2C(=O)c3cccc(NCCC(=O)N4CCN(c5ccc(C(=O)Nc6n[nH]c7ccc(Cc8cc(F)cc(F)c8)cc67)c(NC6CCOCC6)c5)CC4)c3C2=O)C(=O)N1 (stereo not shown) [CPD-051, N-(5-(3,5-Difluorobenzyl)-1H-indazol-3-yl)-4-(4-(3-((2-(2,6-dioxopiperidin-3-yl)-1,3-dioxoisoindolin-4-yl)amino)propanoyl)piperazin-1-yl)-2-((tetrahydro-2H-pyran-4-yl)amino)benzamide]
